Assay results: patent publication US20140079634A1, “LABELED PE2I FORMULATION AND METHOD” (priority 2012, published 2014)

Legend:
Format in all cases: in vivo
[1] = target: T1, dopamine transporter (Homo sapiens, UniProt Q01959); assay: SPECT imaging of the dopamine transporter, Lewy Body Dementia subjects; settings: six Lewy Body Dementia individuals, greater than 1 mCi intravenous
T1 construct: from tissue; host or cells: striatum in vivo (SPECT imaging of subjects)
Method: (§1) SPECT imaging of the dopamine transporter with ^123I-PE2I is conducted on six subjects previously diagnosed with Lewy Body Dementia, and on control individuals without a diagnosis of Lewy Body Dementia. For each individual tested, greater than 1 mCi of ^123I-PE2I is administered by intravenous injection at the onset of imaging. Images of the striatum are collected and analyzed by a radiologist to determine striatal binding potentials. In general, the methodology used for the SPECT imaging is the same as the methods described in Fischman et al., 1998, Synapse 29:125 41, which is incorporated herein by reference.

[2] = target: dopamine transporter (Rattus norvegicus, UniProt P23977); assay: SPECT scan, transporter occupancy and binding parameters (Parkinson's Diagnosis)
dopamine transporter (Rattus norvegicus, UniProt P23977), sequence (P23977 whole entry): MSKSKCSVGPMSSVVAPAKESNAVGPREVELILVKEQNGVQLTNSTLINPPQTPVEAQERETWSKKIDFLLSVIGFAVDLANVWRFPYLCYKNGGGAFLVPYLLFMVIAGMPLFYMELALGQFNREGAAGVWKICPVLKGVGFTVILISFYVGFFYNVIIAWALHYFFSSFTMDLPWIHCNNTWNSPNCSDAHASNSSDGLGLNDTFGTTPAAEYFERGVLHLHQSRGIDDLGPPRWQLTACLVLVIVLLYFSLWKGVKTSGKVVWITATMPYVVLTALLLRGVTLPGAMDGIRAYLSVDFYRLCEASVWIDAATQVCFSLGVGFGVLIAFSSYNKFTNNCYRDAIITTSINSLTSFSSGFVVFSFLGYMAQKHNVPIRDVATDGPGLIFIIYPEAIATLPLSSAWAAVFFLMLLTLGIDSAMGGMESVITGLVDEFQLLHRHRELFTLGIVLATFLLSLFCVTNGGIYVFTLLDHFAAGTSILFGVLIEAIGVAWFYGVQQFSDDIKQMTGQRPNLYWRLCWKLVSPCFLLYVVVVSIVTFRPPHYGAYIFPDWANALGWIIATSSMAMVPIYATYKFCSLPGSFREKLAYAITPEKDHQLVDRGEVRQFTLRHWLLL
Method: A SPECT scan is performed. Strong evidence of different nonspecific binding in the striatal region, compared with the reference region is found, leading to bias in the estimate of dopaminergic denervation (range, 36%-94% severity) was found. […] The 6-hydroxydopamine lesion affected B(max) (control, 402±94 pmol/mL; lesioned, 117±120 pmol/mL; P=0.003) but not K app d (control, 331±63 pmol/mL; lesioned, 362±119 pmol/mL; P=0.63).

[3] = target: T1, dopamine transporter; assay: SPECT imaging of the dopamine transporter, ADHD subjects; settings: six ADHD individuals, greater than 1 mCi intravenous
Method: as §1, with “1231-PE2I” for “^123I-PE2I”, “ADHD,” for “Lewy Body Dementia,”, “ADHD.” for “Lewy Body Dementia.”, “29:125-41,” for “29:125 41,”

T1 sequence (Q01959 whole entry): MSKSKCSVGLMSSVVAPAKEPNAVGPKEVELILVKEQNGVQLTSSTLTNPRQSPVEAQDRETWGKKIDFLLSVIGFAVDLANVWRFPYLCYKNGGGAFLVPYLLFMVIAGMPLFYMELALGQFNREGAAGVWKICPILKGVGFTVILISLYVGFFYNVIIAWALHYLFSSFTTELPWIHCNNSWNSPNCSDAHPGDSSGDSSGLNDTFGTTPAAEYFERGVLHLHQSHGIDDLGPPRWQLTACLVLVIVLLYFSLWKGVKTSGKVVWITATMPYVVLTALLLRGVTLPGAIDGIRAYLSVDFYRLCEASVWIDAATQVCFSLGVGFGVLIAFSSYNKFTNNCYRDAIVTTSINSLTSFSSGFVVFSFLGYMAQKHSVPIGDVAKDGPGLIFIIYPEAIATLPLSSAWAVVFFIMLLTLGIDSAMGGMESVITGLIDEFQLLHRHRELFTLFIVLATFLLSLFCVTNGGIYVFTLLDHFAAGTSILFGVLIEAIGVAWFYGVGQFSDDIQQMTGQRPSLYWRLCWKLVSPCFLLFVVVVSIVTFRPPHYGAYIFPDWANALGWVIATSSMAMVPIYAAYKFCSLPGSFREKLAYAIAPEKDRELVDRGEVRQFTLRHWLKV

Which “striatal binding potential versus expected levels for aged matched normal individuals” value [1] does the source give for `COC(=O)[C@@H]1C2CC[C@H](C[C@@H]1c1ccc(C)cc1)N2C/C=C/I` [[^123I]-PE2I, [^123I] N-(3-iodoprop-2E-enyl)-2β-carbomethoxy-3β-(4-methylphenyl)-nortropane] here?
Its value is “reduced binding potential”.

And the “B(max)” value ([2]; 6-hydroxydopamine lesioned)?
The value was 117 ± 120 pmol/mL.

What about the “B(max)” value ([2]; control) of the same compound?
The value was 402 ± 94 pmol/mL.

What about the “striatal binding potential versus expected levels for aged matched normal individuals” value [3] of the same compound?
The value was “reduced binding potential”.
